Results from US20210283163A1, “COMPOSITIONS AND METHODS FOR THE TREATMENT OF ACUTE AND CHRONIC PRURITIS” (Duke University, priority 2018, published 2021).
Where two headings read alike, the source gives them in different places.

Tests used:
[1] = test system: CTCL mice; assay: Mouse CTCL xenograft model of chronic itch; format: in vivo; details: given 20 days after Myla cell inoculation; for effect on CTCL-evoked chronic itch: hsa-miR-711 inhibitor 100 μM, HC030031 200 μM, A967079 50 μM, peptides 2 mM
Experimental: Mouse CTCL Xenograft Model of Chronic Itch. We developed a murine xenograft model of cutaneous T cell lymphoma (CTCL) using immune-deficient mice (NOD.CB17-Prkdcscid, 8-10 weeks old, male). CD4^+ MyLa cell line was purchased from Sigma (Ca #95051032). The cell line was established from a plaque biopsy of a person with mycosis fungoides stage II by inclusion of IL-2 and IL-4 in the culture medium. CTCL was generated via intradermal injection of CD4^+ Myla cells (1×10^5 cells/μl, 100 μL) on the nape of the neck. Tumor growth was assessed for 40 days by measurements of tumor diameters.
(§1) Behavioral Assessment for Scratching (Itch) and Wiping (Pain). Mice were shaved on the cheek or nape after a brief anesthesia with isoflurane. Before experiments, mice were habituated in small plastic chambers (14×18×12 cm) daily for two days. The room temperature and humidity remained stable for all the experiments. […] After the injection, the number of scratches in 60 min was counted. A scratch was counted when a mouse lifted its hind paw to scratch the shaved region and returned the paw to the floor or to the mouth. A bout of wiping was defined as a continuous wiping movement with a forepaw directing at the area of the injection area (Shimada and LaMotte, Pain 2008, 139, 681-687). Scratching and wiping behavior was videoed for 30 min or 60 min using Sony HDR-CX610 camera. The video was subsequently played back offline and the numbers of scratches and wipes were quantified in a blinded manner.
Generation of Myla Stable Cell Line Expressing miR-711 Inhibitor. CD4^+ Myla cells were plated at a density of 2×10^5 cells/mL in 2 mL culture media in 6-well plates. For each well, 20 μL of the MISSION Lenti microRNA Inhibitor (hsa-miR-711) lentivirus (Sigma) with a titer of 2.6×10^7 Tu/mL were added. Cell mixtures were incubated at 37° C. for 48 hr, washed with PBS three times, and re-suspended in fresh culture media, and 24 hr later, 1 μg/mL puromycin was added to the cells to select stably transduced cell populations. We tried to grow and passage the cells as much as necessary (usually 3 days) and maintained selection pressure by keeping 1 μg/mL puromycin in the medium. After 4 weeks, a large number of the cells were killed; the remaining cells retained the expression of the plasmid, which stably integrates into the genome of the targeted cells. These cells were used for inoculation to generate the CTCL model for testing the effects of miR-711 inhibitor on chronic itch and tumor growth.

[2] = test system: mice; assay: Persistent itch after intradermal adenovirus (AV) overexpression of hsa-miR-711; format: in vivo, mouse; details: 10 days after the AV injection, A-967079 50 μM, hsa-miR-711 inhibitor 100 μM, blocking peptide 2 μM
Experimental: as §1
miRNA Measurement by Quantitative Real-Time RT-PCR (qPCR). Total RNA was isolated from serum of CTCL mice or adenovirus-treated mice using Qiazol Lysis Reagent (QIAGEN) together with miRNeasy Serum/Plasma Kit (Park et al., Neuron 2014, 82, 47-54). All RNA samples were immediately used or kept at −80° C. until further processing. To convert mature miRNA into cDNA, 6 μl of total RNA solution were reverse transcribed using the miScript II RT Kit (including polyadenylation of miRNAs and reverse transcription using an oligo-dT that binds to a universal RT-sequence). Specific miRNA levels were quantified by qPCR using miScript SYBR Green Kit including miScript miRNA assay for hsa-miR-711, hsa-miR21, hsamiR155, and hsa-miR-326, together with the universal RT primer, according to the manufacturer's protocol (CFX96 Real-Time system, Bio-Rad). Relative quantities of miRNAs were calculated using the Ct value after normalization to control miRNAs. Caenorhabditis elegans miRNA-39 (cel-miRNA-39) was included as spiked-in control for extracellular miRNA.

[3] = test system: naive mice; format: in vivo, mouse
Experimental: as §1

[4] = test system: TG neurons; assay: Calcium imaging in TG neurons of Pirt-GCaMP3 mice; format: cell-based, mouse; details: histamine 500 μM, CQ 1000 μM, AITC 200 μM; for TG neurons responding (calcium): miR-711 50 μM, 204 neurons
Experimental: Primary Cultures of Mouse and Human Sensory Neurons. […] Cells were mechanically dissociated with a flame polished Pasteur pipette in the presence of 0.05% DNase I (Sigma).
Ca^2+ Imaging. […] The imaging buffer includes 140 mM NaCl, 10 mM D-(+)-Glucose, 1 mM MgCl2, 2 mM CaCl2, 5 mM KCl, 10 mM HEPES, pH=7.4, osmolarity=320 mOsm/L. Calcium signals were measured using green emitted light in a 3 s interval. Ca ^2+ signal amplitudes were presented as ΔF/F0=(Ft−F0)/F0 as ratio of fluorescence difference (Ft−F0) to basal value (F0). The average fluorescence intensity in the baseline period was taken as F0. Ca ^2+ imaging was also analyzed in HEK293-TRPA1 cell line after loading cells with […] fura2-AM (Invitrogen) for 40 min in the Ca^2+ imaging buffer. Ca^2+ imaging protocol was a ratio metric method with 340/380-nm wavelength light for dual excitation. Data were presented as ΔR/R0, determined as the fraction ΔR (Rt−R0) of the increase of a given ratio over baseline ratio (R0).

[5] = test system: mice; assay: Pain tests for mechanical and thermal sensitivity after intraplantar injection; format: in vivo, mouse; details: miR-711 1 mM, AITC 10 mM, 10 μL
Experimental: Pain Tests for Mechanical and Thermal Sensitivity. Mice were habituated to the environment for at least 2 days before the testing. All the behaviors were tested blindly. […] For testing mechanical sensitivity, we confined mice in boxes (14×18×12 cm) placed on an elevated metal mesh floor and stimulated their hind paws with a series of von Frey hairs with logarithmically increasing stiffness (0.16-2.00 g, Stoelting), presented perpendicularly to the central plantar surface. We determined the 50% paw withdrawal threshold by Dixon's up-down method (Dixon, Annu. Rev. Pharmacol. Toxicol. 1980, 20, 441-462). Thermal sensitivity was tested using Hargreaves radiant heat apparatus (Hargreaves et al., Pain 1988, 32, 77-88) (IITC Life Science). For the radiant heat test, the basal paw withdrawal latency was adjusted to 10-15 s, with a cutoff of 25 s to prevent tissue damage.

[6] = high concentrations, 5 and 10 mM, 5 μL
[7] = low concentrations, 10 and 100 μM

CCC(=N\O)/C(C)=C/c1ccc(F)cc1 [A967079, (1E,3E)-1-(4-Fluorophenyl)-2-methyl-1-pentene-3-one oxime]
effect on CTCL-evoked chronic itch [1]: suppressed
effect on hsa-miR-711 AV-induced persistent itch [2]: Inhibition

C=CCN=C=S [AITC]
scratching after intradermal cheek injection [3, 6]: not scratching
wiping after intradermal cheek injection [3, 6]: induced wiping
itch after intradermal cheek injection [3, 7]: mild itch
pain after intradermal cheek injection [3, 7]: no pain
scratching (itch) after intradermal cheek injection ([3]; naive mice, 1 mM, 5 μL): induced both scratching and wiping
wiping (pain) after intradermal cheek injection ([3]; naive mice, 1 mM, 5 μL): induced both scratching and wiping
miR-711-responsive TG neurons that also responded [4]: 100%
TG neurons responding (calcium) [4]: 32.4%
heat hyperalgesia [5]: elicited marked hyperalgesia and allodynia
mechanical allodynia [5]: elicited marked hyperalgesia and allodynia

NH2-FRNELAYPVLTFGQL-COOH (H-FRNELAYPVLTFGQL-OH) [blocking peptide]
duration of reduction of CTCL-evoked chronic itch ([1]; 2 mM): more than 5 hr
effect on CTCL-evoked chronic itch [1]: effectively reduced
effect on hsa-miR-711 AV-induced persistent itch [2]: Inhibition

miR-711: mmu-miR-711: gggacccggggagagauguaag (SEQ ID NO: 5) (GGGACCCGGGGAGAGAUGUAAG; chemistry not given here)
scratching after intradermal cheek injection ([3]; 0.01 and 0.1 mM): mild but significant scratching
miR-711-induced pruritus in knockout mice ([3]; Tlr7−/− mice versus WT): unaltered
miR-711-induced acute itch in knockout mice ([3]; Trpa1−/− mice versus WT): abrogated
pain (wiping) after intradermal cheek injection ([3]; all the concentrations tested): failed to evoke pain (wiping)
onset (latency) of pruritus ([3]; compared with chloroquine (CQ) and histamine, first 60 sec): very rapid, with a shorter latency
scratching after intradermal cheek injection ([3]; highest dose, 5 mM, 5 μL): 395.2±32.8 bouts per hour
scratching (itch) after intradermal cheek injection ([3]; naive mice, 1 mM, 5 μL): evoked marked scratching
scratching (itch) after intradermal cheek injection ([3]; naive mice, 1 mM, 5 μL, listed as mmu-miR-711): able to evoke pruritus
TG neurons responding (calcium) [4]: 12.3%
heat hyperalgesia [5]: failed to induce
mechanical allodynia [5]: failed to induce
